These results are taken from US6579851B2, “Effects of glucagon-like peptide-1 (7-36) on antro-pyloro-duodenal motility” (Amylin Pharmaceuticals, Inc., priority 2000, dated 2003).

Each structure is given as a SMILES string. Read-outs that look alike come from different tables or passages of the source. Some results are limits rather than exact numbers.

For the data set the following is noted: for GLP-1 (plasma immunoreactivity, AUC over basal): 60 min period, mean ± SEM. On the procedure: Plasma glucose concentrations were measured using a glucose analyzer by the glucose oxidase method (YSI 1500 G; Schlag, Bergisch-Gladbach, Germany), with a coefficient of variation of <2%. Plasma insulin was measured by the Abbott Imx Microparticle Enzyme Immunoassay, with an average intraassay coefficient of variation of 5%. Plasma immunoreactivities of C-peptide, glucagon, and pancreatic polypeptide (PP) were analyzed by commercially available radioimmunoassay kits (Biermann, Bad Nauheim, Germany and Euradiagnostica, The Netherlands [PP]). […] The detection limit of the assay was 0.25 pmol/l. […] Intra- and inter-assay coefficients of variation were 3.4 and 10.4%, respectively. All values were expressed as mean±SEM. Plasma and motility parameters were separately analyzed for each 60 min period. Pyloric tone was calculated as change from basal, the latter being determined as mean pyloric tone during the total basal period before starting the experiments. Differences of plasma hormones and glucose compared to the basal state were calculated as integrated values over basal (area under the response curve; AUC). Basal levels of plasma parameters were determined as the mean of the two basal values just before the start of each experiment. All samples were first tested for normality by the Kolmogoroff-Smirnoff test. Differences between experimental sets for each parameter were analysed by two-way repeated measures analysis of variance employing intravenous infusion and duodenal perfusion as factors. When this analysis indicated differences, a Student-Newman-Keuls multicomparison test was performed. Differences were considered significant at P<0.05.
Eleven healthy male volunteers, 23 to 28 years old and within 10% of ideal body weight, participated in the studies. None of them were taking medication, or suffering from gastrointestinal symptoms or systemic disease.
All studies were performed after an overnight fast. Two experiments were performed, separated by at least 1 week on subjects lying in a semirecumbent position. An indwelling catheter was inserted into an antecubital vein for intravenous infusions. A second catheter was inserted into a dorsal vein of the contralateral hand in a retrograde fashion for sampling of arterialized blood (Schirra et al. Proc Assoc Am Physicians 109, 84-97 (1997)).
On the interdigestive study day, 0.154 M saline was continuously perfused into the region of the lower duodenal flexure at a rate of 2.5 ml/min. […] On the postprandial study day, the same intravenous infusions were administered with an intraduodenal lipid perfusion at 2.5 kcal/min (2.5 ml/min, Lipofundin MCT 10%, Braun Co., Melsungen, Germany). This lipid preparation consisted of 50% medium-chain triglycerides (MCT) and 50% long-chain triglycerides (LCT, soya bean oil).
Throughout the experiment, blood samples were taken immediately before the start of intravenous infusion, as well as in 10-min intervals thereafter. Blood was collected in ice-chilled EDTA tubes containing 1000 aprotinin (kallikrein inhibitory units/ml blood) and was centrifuged immediately. The plasma was stored at −20° C. until assayed.

As for `CC[C@H](C)[C@H](NC(=O)[C@H](Cc1ccccc1)NC(=O)[C@H](CCC(=O)O)NC(=O)[C@H](CCCCN)NC(=O)[C@H](C)NC(=O)[C@H](C)NC(=O)[C@H](CCC(N)=O)NC(=O)CNC(=O)[C@H](CCC(=O)O)NC(=O)[C@H](CC(C)C)NC(=O)[C@H](Cc1ccc(O)cc1)NC(=O)[C@H](CO)NC(=O)[C@H](CO)NC(=O)[C@@H](NC(=O)[C@H](CC(=O)O)NC(=O)[C@H](CO)NC(=O)[C@@H](NC(=O)[C@H](Cc1ccccc1)NC(=O)[C@@H](NC(=O)CNC(=O)[C@H](CCC(=O)O)NC(=O)[C@H](C)NC(=O)[C@@H](N)Cc1c[nH]cn1)[C@@H](C)O)[C@@H](C)O)C(C)C)C(=O)N[C@@H](C)C(=O)N[C@@H](Cc1c[nH]c2ccccc12)C(=O)N[C@@H](CC(C)C)C(=O)N[C@H](C(=O)N[C@@H](CCCCN)C(=O)NCC(=O)N[C@@H](CCCNC(=N)N)C(N)=O)C(C)C` [GLP-1, glucagon-like peptide-1(7-36)amide], the “GLP-1 (plasma immunoreactivity, AUC over basal)” value reads like this: (intraduodenal lipid 2.5 kcal/min, GLP-1 iv. high dose 1.2 pmol·kg−1·min−1) 75.2 ± 3.9*‡∥ pmol/l · 60 min; (intraduodenal lipid 2.5 kcal/min, GLP-1 iv. low dose 0.4 pmol·kg−1·min−1) 33.8 ± 2.9*∥ pmol/l · 60 min; (intraduodenal saline, GLP-1 iv. high dose 1.2 pmol·kg−1·min−1) 67.4 ± 4.0 pmol/l · 60 min; (intraduodenal saline, GLP-1 iv. low dose 0.4 pmol·kg−1·min−1) 25.2 ± 2.6 pmol/l · 60 min. Further, under “iv. infusion, duodenal saline and lipid”, the “Time to constant plasma levels after start of infusion” value was at most 20 min.
